According to patent US9422233B2 (priority 2011, dated 2016):

Key:
human recombinant FAAH = molecular target: T1, human recombinant FAAH (Homo sapiens, UniProt O00519); experiment: biochemical
T1 construct: purchased Cayman Chemical (Ann Arbor, Mich.)
T1 sequence (O00519 1-579): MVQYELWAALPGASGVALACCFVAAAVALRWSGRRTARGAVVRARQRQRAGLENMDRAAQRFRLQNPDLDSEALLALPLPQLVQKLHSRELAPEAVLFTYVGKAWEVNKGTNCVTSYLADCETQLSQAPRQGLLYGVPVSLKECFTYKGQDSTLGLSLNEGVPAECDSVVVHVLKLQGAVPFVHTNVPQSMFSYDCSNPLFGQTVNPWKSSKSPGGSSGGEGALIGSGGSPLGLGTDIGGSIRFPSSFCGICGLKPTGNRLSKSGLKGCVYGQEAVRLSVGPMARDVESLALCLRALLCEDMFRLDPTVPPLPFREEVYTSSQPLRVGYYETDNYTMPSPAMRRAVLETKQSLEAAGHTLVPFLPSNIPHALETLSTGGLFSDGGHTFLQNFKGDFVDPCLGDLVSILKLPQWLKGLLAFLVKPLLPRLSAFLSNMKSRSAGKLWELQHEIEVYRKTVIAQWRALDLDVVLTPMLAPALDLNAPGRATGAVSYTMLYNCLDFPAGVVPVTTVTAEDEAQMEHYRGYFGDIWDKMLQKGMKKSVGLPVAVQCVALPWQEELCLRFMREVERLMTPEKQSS

MMP-9 = MMP-9 (Homo sapiens, UniProt P14780); experiment: biochemical
rabbit corneas = type: cell-based

MMP-9, sequence (P14780 94-707, species assumed): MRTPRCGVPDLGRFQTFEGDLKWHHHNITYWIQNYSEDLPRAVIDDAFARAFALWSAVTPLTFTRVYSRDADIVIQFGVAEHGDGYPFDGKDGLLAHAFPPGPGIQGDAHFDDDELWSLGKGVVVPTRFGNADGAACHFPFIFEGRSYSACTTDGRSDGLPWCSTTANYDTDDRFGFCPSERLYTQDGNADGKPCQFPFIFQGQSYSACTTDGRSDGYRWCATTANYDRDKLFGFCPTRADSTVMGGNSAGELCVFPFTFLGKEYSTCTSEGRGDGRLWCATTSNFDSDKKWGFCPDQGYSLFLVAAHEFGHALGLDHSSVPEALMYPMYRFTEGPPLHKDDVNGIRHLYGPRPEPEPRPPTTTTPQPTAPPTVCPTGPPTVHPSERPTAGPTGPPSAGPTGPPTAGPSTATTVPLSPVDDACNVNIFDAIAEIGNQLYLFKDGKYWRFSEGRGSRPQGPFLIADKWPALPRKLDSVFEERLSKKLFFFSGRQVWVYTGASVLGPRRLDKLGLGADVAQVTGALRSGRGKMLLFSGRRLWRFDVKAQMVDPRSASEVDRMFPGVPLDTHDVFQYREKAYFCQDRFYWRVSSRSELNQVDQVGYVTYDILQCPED

Structure (SMILES)	IC50 (human recombinant FAAH)	IC50 (MMP-9)	basement membrane attached post-treatment (rabbit corneas)	epithelial-stromal separation (detachment) (rabbit corneas)
CCCCCCCCCCCCOC(=O)N(O)Cc1ccc(O)c(OC)c1 [Compound 4b, Dodecyl-N-hydroxy(4-hydroxy-3-methoxybenzyl)carbamate]	67 µM	–	–	–
CCCCCCCCOC(=O)N(O)Cc1ccc(O)c(OC)c1 [Compound 4c, Octyl-N-hydroxy(4-hydroxy-3-methoxybenzyl)carbamate]	73 µM	–	–	–
CCCCCCCCC(CCCCCC)C(=O)N(O)Cc1ccc(O)c(OC)c1 (stereo not drawn) [Compound 5c, 2-hexyl-N-hydroxy-N-(4-hydroxy-3-methoxybenzyl)decanamide]	–	99 µM	–	–
CCCCCCCCN(O)C(=O)Cc1ccc(O)c(OC)c1 [Compound 10b, N-octyl-N-hydroxy-2-(4-hydroxy-3-methoxyphenyl)acetamide]	–	68 µM	85%	15%
CCCCCCCCCCCCCCCCOC(=O)N(O)Cc1ccc(O)c(OC)c1 [Compound 4a, Hexadecyl-N-hydroxy(4-hydroxy-3-methoxybenzyl)carbamate]	–	120 µM	–	–
CCCCCCCN(O)C(=O)Cc1ccc(O)c(OC)c1 [Compound 10a, N-heptyl-N-hydroxy-2-(4-hydroxy-3-methoxyphenyl)acetamide]	192 µM	–	–	–
COc1cc(CN(O)C(=O)Oc2ccccc2)ccc1O [Compound 4g, Phenyl-N-hydroxy(4-hydroxy-3-methoxybenzyl)carbamate]	10 µM	–	–	–
CCCCCCCC/C=C\CCCCCCCC(=O)N(O)Cc1ccc(O)c(OC)c1 [Compound 5a, (9Z)—N-Hydroxy-N-[(4-hydroxy-3-methoxyphenyl)methyl]-9-Octadecenamide]	71 µM	–	70%	30%
